Results published in ChEMBL document CHEMBL3507680, “University of Dundee, Gates Library screen for HepG2 cell viability”.

Experiment: Human HepG2 cell viability assay in 384 well format
Format: toxicity, cell-based
Set-up: dose 125 nL, time 70.5 hour; cytotoxicity at 70.5 h: concentration not given beside the values
Settings: HepG2 cells, read-out: Inhibition

Row | SMILES | cytotoxicity at 70.5 h [%]
1 | CC(C)(O)CCc1cccc(C(=O)NCCC2=CSC3=NCCCN23)c1 | -0.369
2 | Cc1cc(CN2CC[C@@H]3[C@@H](CCC(=O)N3CCc3c[nH]cn3)C2)oc1C | 1.03
3 | Cc1ccc(OC2(C(=O)O)CCN(C(=O)c3ccoc3C)CC2)cn1 | -0.44
4 | Cc1cc(N2CCC(CO)(CC3CCCCO3)CC2)nc2ccccc12 (stereo not given) | -9.32
5 | Cc1nc2c(c(NCc3ccc(-c4ccccn4)s3)n1)CCNCC2 | -8.23
6 | CN(C)C(=O)N1C[C@H]2CC[C@@H]1CN(C1Cc3ccccc3C1)C2 | -9.42
7 | Cc1cc2c(N3CCC(N(C)CCc4cnn(C)c4)CC3)ncnc2s1 | 2.46
8 | CN(C)c1nc2c(c(N(C)Cc3n[nH]c4c3CCCCC4)n1)CCNC2 | -9.48
9 | CN1CCCN(C(=O)c2nc3sccn3c2-c2ncc[nH]2)CC1 | -13
10 | CCC(CO)N(Cc1ccccn1)C(=O)c1ccc(CSC)o1 (stereo not given) | -0.517
11 | Cc1noc(C)c1-c1n[nH]c2c1CN(S(=O)(=O)c1ccsc1)CC2 | 15.3
12 | O=C(Cc1ccc2c(c1)OCO2)N1CCN(c2ccccc2Cl)C(=O)C1 | -4.7
13 | CS(=O)(=O)N1C[C@H]2CC[C@@H]1CN(Cc1ccncc1)C2 | -10.9
14 | Cc1nc2c(c(NCC(=O)NC(C)C)n1)Cc1ccccc1OC2 | -2.23
15 | CC(C)Cc1noc(CN(C)c2cc(N(C)C)ncn2)n1 | -7.9
16 | COCCN1CCC(CN(CC2CCCO2)C(=O)Cc2cccs2)CC1 (stereo not given) | -4.23
17 | CCn1c(C2CCCN(Cc3cc(C)cc(C)c3)C2)nn(C)c1=O (stereo not given) | 3.73
18 | CSc1ncc(CN2C[C@H]3CC[C@@H]2CN(C2CCOCC2)C3)cn1 | -3.4
19 | CCC[C@H]1CN(CCOC)C[C@@H]1NC(=O)Cn1cc(C)cn1 | 4.5
20 | CC(C)CCN1CC2(CCN(C(=O)C3(C)CCCCO3)CC2)OC1=O (stereo not given) | 49.2
21 | CC(C)(C)CN1CCCC(O)(CN2CCc3[nH]ncc3C2)C1=O (stereo not given) | -1.48
22 | Cc1cc(C(=O)NC(C)C(=O)Nc2cc(F)ccc2C)nc(C)n1 (stereo not given) | 5.43

Row | SMILES | cytotoxicity at 70.5 h [%]
23 | CCc1cnc(NCCCOC2CCCC2)nc1 | -16.5
24 | COCCN(Cc1sccc1C)C(=O)COc1cccnc1 | -4.34
25 | Cc1ccc([C@@H]2CN(C(=O)c3cc[nH]c3)C[C@H]2NC(=O)C2CC2)cc1 | -10.7
26 | CN(CCc1noc(C2CC2)n1)C(=O)CCc1cc2n(n1)CCCNC2 | -9.33
27 | CCC(C)N(Cc1sccc1C)C(=O)c1cnc[nH]1 (stereo not given) | -6.28
28 | O=C(O)c1coc(COc2cccc3cnccc23)n1 | -7.63
29 | N#CC1(C(=O)N2C[C@H]3CC[C@@H]2CN(Cc2cscn2)C3)CCOCC1 | 15.7
30 | O=C(c1ccccc1)N1C[C@@H]2CC[C@H](C1)N(Cc1cc(F)ccc1Cl)C2 | 27
31 | CC(=O)c1ccc(-c2cnn(CC(=O)Nc3ccnn3C)c2)nc1 | -9.08
32 | O=C(CN1CCCC1)N1CCCC(CNS(=O)(=O)Cc2ccccc2)C1 (stereo not given) | 22.2
33 | Cc1nc(C(C)Nc2ncnc3c2CCNCC3)c(C)s1 (stereo not given) | -4.99
34 | CCOc1ccc(CN2CC[C@H]3CC[C@@H](C2)N3)cc1CO | -14
35 | CCOC(=O)C1(Cc2cccc(OC)c2)CCCN(Cc2ncc[nH]2)C1 (stereo not given) | 22
36 | CCN1CC2(CCC1=O)CCN(Cc1cccc(OC(F)F)c1)CC2 | 20.5
37 | CC(O)CN1CC2(CCC1=O)CCN(C(=O)c1cnn(C)c1)CC2 (stereo not given) | -1.73
38 | O=C(c1cccnc1SC/C=C/c1ccccc1)N1CC[C@H](O)C1 | 2.11
39 | CC(C)c1nnsc1CN1CCc2[nH]nc(-c3ccc(Cl)cc3)c2C1 | 9.53
40 | COCCn1ccnc1C1CCN(C(=O)c2cccc(COC)n2)CC1 | -4.2
41 | CC(C)c1cc(C2CCCN2C(=O)CN2C(=O)CCNC2=O)no1 (stereo not given) | -5.21
42 | O=C(CCN1CCCCO1)N1CCC(CO)(Cc2ccccc2)CC1 | -6.23
43 | CC1(C)CN(Cc2cc(C3CCCCC3)no2)CC[C@]1(C)O | -12.5
44 | Cc1cc(C)c2nc(CNC3CCCNC3=O)cc(O)c2c1 (stereo not given) | -6.5

Row | SMILES | cytotoxicity at 70.5 h [%]
45 | COC(=O)CCCNC(=O)c1cc(COc2cncc(Cl)c2)on1 | 0.545
46 | O=C(C1CC1)N1CCc2c(ncnc2NCCc2nc3c(s2)CCC3)C1 | 13.5
47 | Fc1ccccc1C1(CNC2CCOC3(CCOCC3)C2)CCCC1 (stereo not given) | -9.34
48 | COc1cccc(OC)c1-c1c[nH]c(C)n1 | -19.9
49 | CC(C)C(C)N(Cc1cnc2ccccc2n1)Cc1ccco1 (stereo not given) | -8.62
50 | CC(=O)Nc1ccc(CNC(=O)CNCc2sc(C)nc2C)cc1 | 6.71
51 | CCC(NC(=O)CC1CCN(C(C)C)CC1)c1cn2cccnc2n1 (stereo not given) | 1.45
52 | Cc1ccccc1N1CCN(c2nc(N(C)C)nc3c2CCNC3)CC1 | 33.6
53 | Nc1nnc(SCC(=O)NCC(O)c2ccccc2)s1 (stereo not given) | 18.6
54 | CCN(C)C[C@@H]1CN(S(=O)(=O)c2ccc(C#N)cc2)C[C@@H]1CO | -1.6
55 | Cn1ncc2c(N3CCC(F)(F)CC3)nc(-c3ccncc3)nc21 | -13.7
56 | COc1ccc(-c2ccoc2)cc1CNC1CCCC1 | 10.7
57 | CCc1nccc(CN2CCCC(CNC(=O)c3occc3C)C2)n1 (stereo not given) | -10.1
58 | COCc1ncc(CN(Cc2ccco2)C(C)C(C)C)cn1 (stereo not given) | -15.5
59 | Cc1nc(N)nc(C)c1CC(=O)N1CCCN(CC2CC2)C(C(C)C)C1 (stereo not given) | -8.22
60 | CC(CNc1nccc(C(C)C)n1)Oc1cccnc1 (stereo not given) | -6.89
61 | CCN(CC1=CCN(C)CC1)C(=O)CCOC | -6.72
62 | CNc1ccnc(NCCC(=O)Nc2ccccc2OC)n1 | -3.36
63 | N[C@H]1CC[C@@H](n2cc(C(=O)NC3CCc4ccccc4C3)nn2)CC1 (stereo not given in full) | -11.5
64 | CN(Cc1ccccc1)S(=O)(=O)N1C[C@@H](C(=O)O)[C@H](C2CC2)C1 | -6.58
65 | C[C@@H]1CN(Cc2cccnc2)C[C@]1(C)O | -15.2
66 | Oc1cccc(CN2C[C@H]3CC[C@@H]2CN(Cc2ccc(F)cc2)C3)c1 | -1.41

Row | SMILES | cytotoxicity at 70.5 h [%]
67 | CN1CCN(Cc2ccccc2Oc2ccc(C(N)=O)cn2)CC1 | -6.47
68 | Cc1n[nH]c(C)c1CC(=O)N1CC[C@@](C)(O)[C@@H](Cc2ccccc2)C1 | -16.1
69 | CCCNc1ncc(CN2C[C@H]3CC[C@@H]2CN(C2CCOCC2)C3)cn1 | 2.68
70 | CN(CCn1cnc(-c2ccccc2)c1-c1ncc[nH]1)S(C)(=O)=O | 7.51
71 | c1ccc2c(c1)cnn2CCCNC1CCOC2(CCOCC2)C1 (stereo not given) | -13.6
72 | CCO[C@H]1CN(C)C[C@@H]1NC(=O)c1c[nH]nc1C1CCCCC1 | 21.2
73 | CC(C)(CNc1cccc(Cl)c1)NC(=O)C1CCCN(CC(N)=O)C1 (stereo not given) | -8.71
74 | CN1CCC(N(CCc2ccccc2)C(=O)c2ccc(C#N)cc2)CC1 | -7.31
75 | O=C(O)c1cc(-n2cc3c(n2)CCC3)cc(S(=O)(=O)N2CCOCC2)c1 | 3.53
76 | Cc1nc(C(C)C)sc1C(=O)NCCSc1nccn1C | -10.1
77 | CCC1CN(Cc2nc(C(C)C)no2)CCC(=O)N1Cc1ccccc1 (stereo not given) | 22.7
78 | Cc1ccnc(NC(=O)c2ccc(C)o2)c1 | 12.1
79 | CCOc1cccc(CN2CCCn3nc(CNS(C)(=O)=O)cc3C2)c1 | -9.54
80 | CN(C)C(=O)CN1CCC(c2nnc(Cn3cccn3)n2C2CC2)CC1 | -12
81 | Cc1cc(C)n(CC(=O)N2C[C@@H]3CC[C@H](C2)N(CC2CCC2)C3)c(=O)n1 | 24.1
82 | CC(C)c1nc(N2CCC(N3CCCCCC3)CC2)c2cnn(C)c2n1 | 13
83 | O=C(NCc1ccc(C(=O)N2CCCC2)cc1)c1cn2c(n1)CNCC2 | -3.69
84 | CC(=O)NCCc1cn(-c2cc(F)ccc2C)cn1 | -8.56
85 | COc1cccc2c1OCC(Cc1ccc(N)nc1C)C2 (stereo not given) | -1.03
86 | CCCc1ccc(CN2C[C@H]3C(=O)N(CC4CC4)C[C@@]3(C(=O)O)C2)o1 | -6.58
87 | CC(C)N1CCCC2(CCN(Cc3nncn3C(C)C)C2)C1=O (stereo not given) | -0.727
88 | COCCc1noc(CN(C)C(=O)C(C)N2CCc3ccccc3C2)n1 (stereo not given) | -9.3

Row | SMILES | cytotoxicity at 70.5 h [%]
89 | CCn1ncc2[nH]c(-c3cc(OC)c(OC)cc3OC)nc21 | 29.7
90 | Cc1cc(CNCc2c(C)n(CC(C)C)c3ccccc23)[nH]n1 | -5.55
91 | Cc1nn(C)c2nc(N(Cc3ccccn3)CC3CCCO3)sc12 (stereo not given) | 17.1
92 | Cc1noc(-c2ccc(N3CCN(Cc4ncccc4C)CC3)nc2)n1 | -7.47
93 | Cc1csc2ncnc(N3CCC(Cn4cc(C(C)(C)O)nn4)CC3)c12 | 5.18
94 | CCOCc1nc(CSc2ccncc2)n(C2CCN(C)CC2)n1 | 13
95 | CC(C)Cc1cc(C(=O)N2CCC[C@H]2C(=O)N2CCOCC2)on1 | -9.69
96 | CCc1nccn1CCC(=O)N1CC[C@H](CO)[C@H](O)C1 | -10.2
97 | Cc1ncsc1CN1C[C@H]2CC[C@@H]1CN(Cc1ccccc1)C2 | 30
98 | O=c1[nH]nc(C2CC2)n1-c1cccc(Cl)c1 | -4.41
99 | COCCOC(=O)N1CCC(c2nccn2CC2CC2)CC1 | -4.36
100 | Cc1nncn1CCN1C(=O)CC2(CCCC2)CC1=O | -7.54
101 | COc1ccccc1OCCCN1CC=C(c2cnn(C)c2)CC1 | -2.62
102 | CCCN1C[C@H]2CC[C@@H]1CN(c1nnc(C(C)C)s1)C2 | 27.1
103 | CCc1noc(CN(CC)C(=O)CC2C(=O)NCCN2CC=C(C)C)n1 (stereo not given) | 1.29
104 | COCCCN1CCN([C@@H]2c3ccccc3C3(CCNCC3)[C@H]2O)CC1 | 0.267
105 | OC1CN(Cc2ccccc2)CCN(c2ccncc2)C1 (stereo not given) | 11.5
106 | CC(C)N1CCC(CC(=O)N2CCCCC2CCn2cccn2)CC1 (stereo not given) | -10.4
107 | COc1cccc(OC)c1C(=O)N1C[C@@H](CN(C)C)[C@@H](CO)C1 | -2.79
108 | CCCc1ccc(CN2CCC3(CCC(=O)N(C)CC3)CC2)o1 | 17.3
109 | O=C1CC2(CCCC2)CC(=O)N1Cc1nc2ncccn2n1 | 1.37
110 | O=C1CC2(CCCC2)CC(=O)N1Cc1nccs1 | -1.44
